Source: US11464750B2, “Anticancer agent and use thereof” (priority 2017, dated 2022)

What was measured:
Type in all cases: cell-based, human
BALL-1 cells = assay: Cell Death Detection ELISA (histone-binding DNA fragmentation), BALL-1; details: 0.5 μM, 72 hours
Description: The induction of apoptosis by 3EZ,20Ac-ingenol treatment was examined by detecting histone-binding DNA fragmentation in the cytoplasm using a Cell Death Detection ELISA kit (Roche Applied Science).
Specifically, BALL-1 cells, TKG0210 cells, and TKG0377 cells were inserted into tubes at 5×10^4 cells/well/200 μL, and incubated for 6, 12, 24, 48, and 72 hours in the presence of 3EZ,20Ac-ingenol at a final concentration of 0.5 μM. Subsequently, the respective cells were lysed in a lysis buffer. Subsequently, the supernatant of cell debris of the respective cells was collected and transferred to an ELISA plate, and an absorbance at a wavelength of 405 nm was measured to measure the induction of apoptosis.

p53 protein [1] = assay: Western blotting, p53 protein, Panc-1 cells; details: 3 μM, 12 hours until 48 hours after treatment
Description: (§1) Specifically, JeKo-1 cells were cultured for 0 (control), 12, 24, and 48 hours in the presence of 0.5 μM of 3EZ,20Ac-ingenol. In addition, Panc-1 cells were cultured for 0 (control), 12, 24, and 48 hours in the presence of 3 μM of 3EZ,20Ac-ingenol.
(§2) Subsequently, ATR protein, p53 protein, and phosphorylated p53 (hereinafter also referred to as “p-p53”) protein in the respective cells were respectively detected using an anti-ATR antibody (Cell Signaling Technology), an anti-p53 antibody (Santa Cruz), and an anti-p-p53 antibody (Cell Signaling Technology). Furthermore, as a loading control, actin protein was detected using an anti-actin antibody (Sigma).

cyclin D1 [2] = assay: Western blotting, cyclin D1, BALL-1 cells; details: 0.5 μM
Description: Specifically, BALL-1 cells were cultured for 12, 24, and 48 hours in the presence of 3EZ,20Ac-ingenol at a final concentration of 0.5 μM, and abundances of cyclin D1 in the nuclear fraction and the cytoplasm fraction were analyzed by Western blotting. In addition, cells cultured in the absence of 3EZ,20Ac-ingenol were used as controls.
Whether transfer of cyclin D1 from the nucleus to the cytoplasm is ATR-dependent and PTEN-dependent was examined using siRNA against ATR and siRNA against PTEN. First, siRNA against ATR (“ON-TARGET Plus Human ATR (545) siRNA-SMARTpool,” GE Dharmacon), siRNA against PTEN (“ON-TARGET Plus Human PTEN (5728) siRNA-SMARTpool,” GE Dharmacon), and control siRNA (“ON-TARGET Plus Nontargeting pool,” GE Dharmacon) were respectively introduced into BALL-1 cells at a final concentration of 50 nM, and incubated for 48 hours.
Subsequently, a cell medium was replaced with a new medium containing 3EZ,20Ac-ingenol at a final concentration of 0.5 μM, and culturing was performed for 24 and 48 hours. Subsequently, abundances of cyclin D1 in the nuclear fraction and the cytoplasm fraction were analyzed by Western blotting using an anti-cyclin-D1 antibody (Santa Cruz).

cyclin D1 [3] = assay: Western blotting, cyclin D1, Panc-1 cells; details: 3 μM
Description: (§3) Specifically, first, JeKo-1 cells were cultured for 0 (control), 12, 24, and 48 hours in the presence of 0.5 μM of 3EZ,20Ac-ingenol. In addition, Panc-1 cells were cultured for 0 (control), 12, 24, and 48 hours in the presence of 3 μM of 3EZ,20Ac-ingenol.
Subsequently, abundances of cyclin D1 in entire cell fractions, nuclear fractions, and cytoplasm fractions of the respective cells were analyzed by Western blotting.

PTEN protein = assay: Western blotting, PTEN protein, JeKo-1 cells; details: 0.5 μM
Description: as §3
Subsequently, abundances of PTEN protein in entire cell fractions, nuclear fractions, and cytoplasm fractions of the respective cells were analyzed by Western blotting using an anti-PTEN antibody (Santa Cruz). Furthermore, as a loading control, actin protein was detected using an anti-actin antibody (Sigma).

[4] = system: p-PTEN (Ser^380/Thr^382/383); assay: Western blotting, p-PTEN, BALL-1 cells; details: 0.5 μM, 3 to 48 hours, entire cell fraction
Description: The effect of 3EZ,20Ac-ingenol treatment on PTEN, p-PTEN, and p-Akt of BALL-1 cells was examined. First, BALL-1 cells were cultured for 3, 6, 12, 24, and 48 hours in the presence of 3EZ,20Ac-ingenol at a final concentration of 0.5 μM, and by Western blotting using an anti-PTEN antibody (Santa Cruz), an anti-p-PTEN (Ser^380/Thr^382/383) antibody (Santa Cruz), and an anti-p-Akt (Ser^473) antibody (Cell Signaling Technology), abundances of PTEN, p-PTEN, and p-Akt in the entire cell fraction were analyzed. In addition, cells cultured in the absence of 3EZ,20Ac-ingenol were used as controls.

Akt protein = assay: Western blotting, total amount of Akt, Panc-1 cells; details: 3 μM
Description: as §3
Subsequently, by Western blotting using an anti-Akt antibody (Cell Signaling Technology) and an anti-p-Akt (Ser^473) antibody (Cell Signaling Technology), abundances of total amounts of Akt protein and p-Akt in the entire cell fractions, nuclear fractions, and cytoplasm fractions of the respective cells were analyzed. Furthermore, as a loading control, actin protein was detected using an anti-actin antibody (Sigma).

p53 protein [5] = assay: Western blotting, p53 protein, JeKo-1 cells; details: 0.5 μM, 12 hours until 48 hours after treatment
Description: as §1, §2

`CCCCC/C=C\C=C\C(=O)O[C@H]1C(C)=C[C@]23C(=O)[C@@H](C=C(COC(C)=O)[C@@H](O)[C@]12O)[C@H]1[C@@H](C[C@H]3C)C1(C)C` [3EZ,20Ac-ingenol, 3-O-(2′E,4′Z-decadienoyl)-20-O-acetylingenol] was tested, and the “amount of fragmented DNA (apoptosis)” value (BALL-1 cells) was “noticeably increased the amount of fragmented DNA”, the “expression level of p53 protein” value (p53 protein [1]) was “an increase in expression level of p53 protein was recognized” and the “abundance of cyclin D1” value (cyclin D1 [2]; cytoplasm fraction, 12 hours and 24 hours) was “increased”. The “abundance of cyclin D1” value (cyclin D1 [2]; cytoplasm fraction, after 48 hours) was “decreased again”, the “abundance of cyclin D1” value (cyclin D1 [2]; nuclear fraction, 24 hours) was “a decrease in abundance of cyclin D1 was observed” and the “abundance of cyclin D1” value (cyclin D1 [2]; siRNA against ATR introduced, cytoplasm fraction, 24 hours) was “abundances of cyclin D1 in the cytoplasm fractions increased”. For the same compound, the “abundance of cyclin D1” value (cyclin D1 [2]; siRNA against ATR introduced, cytoplasm fraction, 48 hours) was “abundances of cyclin D1 in the cytoplasm fractions decreased again”, the “abundance of cyclin D1” value (cyclin D1 [2]; siRNA against ATR introduced, nuclear fraction, 24 and 48 hours) was “an abundance of cyclin D1 was large” and the “abundance of cyclin D1” value (cyclin D1 [2]; siRNA against PTEN introduced, cytoplasm fraction, 24 hours) was “abundances of cyclin D1 in the cytoplasm fractions increased”. The “abundance of cyclin D1” value (cyclin D1 [2]; siRNA against PTEN introduced, cytoplasm fraction, 48 hours) was “abundances of cyclin D1 in the cytoplasm fractions decreased again”, the “abundance of cyclin D1” value (cyclin D1 [2]; siRNA against PTEN introduced, nuclear fraction, 24 and 48 hours) was “an abundance of cyclin D1 was large” and the “abundance of cyclin D1” value (cyclin D1 [3]; cytoplasm fraction, 12 to 48 hours) was “an abundance of cyclin D1 decreased”. The “expression level of cyclin D1” value (cyclin D1 [3]; entire cell fraction, 12 to 24 hours) was “temporarily increased”, the “expression level of cyclin D1” value (cyclin D1 [3]; entire cell fraction, after 24 hours) was “then decreased thereafter” and the “expression level of cyclin D1” value (cyclin D1 [3]; nuclear fraction, 12 hours) was “temporarily increased”. For the same compound, the “expression level of cyclin D1” value (cyclin D1 [3]; nuclear fraction, after 24 hours) was “decreased after 24 hours”, the “abundance of PTEN protein” value (PTEN protein; cytoplasm fraction, 12 hours to 24 hours) was “an increase in abundance of PTEN protein in the cytoplasm fraction was observed” and the “abundance of PTEN protein” value (PTEN protein; cytoplasm fraction, 48 hours) was “a decrease in abundance of PTEN protein was observed”. For the same compound, the “abundance of PTEN protein” value (PTEN protein; entire cell fraction, 12 hours until 48 hours) was “an abundance of PTEN protein increased”, the “abundance of PTEN protein” value (PTEN protein; nuclear fraction, 12 hours to 24 hours) was “an increase in abundance of PTEN protein in the nuclear fraction was observed” and the “abundance of p-PTEN” value [4] was “an abundance of p-PTEN increased”. For the same compound, the “abundance of total amount of Akt” value (Akt protein; entire cell fraction, 12 hours and 24 hours) was “a temporary increase in abundances of both p-Akt and total amount of Akt was recognized”, the “abundance of total amount of Akt” value (Akt protein; entire cell fraction, 48 hours) was “a decrease was observed again” and the “abundance of total amount of Akt” value (Akt protein; nuclear fraction and cytoplasm fraction, 12 to 24 hours) was “an increase in abundance of both p-Akt and total amount of Akt was recognized”. The “abundance of total amount of Akt” value (Akt protein; nuclear fraction and cytoplasm fraction, 48 hours) was “a decrease was observed 48 hours after the treatment” and the “expression level of p53 protein” value (p53 protein [5]) was “an increase in expression level of p53 protein was recognized”.
